In a melting point compilation (Tetko et al.; mined from patent text by program, amines drawn as free bases though some values may be those of a salt):

First: Cc1nc(-n2ccc(OCCC3CC3)cc2=O)sc1C(=O)NCc1cccnc1
Second: CN(CCOc1ccc(CC2SC(=O)NC2=O)cc1)c1nccs1 (stereo not drawn)
The melting point of the first is lower: 170 to 172 °C for the first, 186 °C for the second.

Compared with `COc1ccc(-c2cc(C(F)F)n3ncc(-c4ccncc4)c3n2)cc1`, `CCn1c(C(O)(C(C)C)C(C)C)nc(-c2ccncc2)c1-c1ccc(Cl)cc1` is higher in melting point: 206 °C for the first, 221 to 223 °C for the second.

First: CC(=O)Oc1ccccc1C(=O)Oc1ccc(CO[N+](=O)[O-])cc1
Second: O=C(COCc1ccccc1)Nc1ccc(OC(=O)COCc2ccccc2)cc1
The melting point of the first is higher: 86 to 88 °C for the first, 55.5 to 58.5 °C for the second.

First: O=C(Nc1ccc2cc(CN3CCCC3)ccc2c1)N1CCC(c2ccc(F)cc2)CC1
Second: Cc1ccccc1-c1cccc(/C=C/C(=O)Nc2ccc(CN3CCCCC3)cc2)c1
The melting point of the first is higher: 209 to 211 °C for the first, 185 to 187 °C for the second.

Compared with `O=C1OCC(CCO)(c2ccc(Cl)c(Cl)c2)CN1Cc1ccccc1` (stereo not drawn), `O=C1CC(/C=C/c2ccncc2)=Nc2ccccc2N1Cc1ccccc1` is higher in melting point: 143 °C for the first, 208 to 210 °C for the second.

Compared with `c1cnc2cc(C34CCCN3CCC4)oc2c1`, `N#Cc1cccnc1N1CCN(CC(=O)Nc2cc(C(F)(F)F)ccc2F)CC1` is higher in melting point: 39 to 41 °C for the first, 130 to 133 °C for the second.

Compared with `COc1cc(C(C)C)c(Oc2cnc(N)nc2N)cc1-c1ccco1`, `COc1cc(N)c(C(=O)c2ccnc(Cl)c2)cc1OC` is lower in melting point: 199 to 203 °C for the first, 132 to 134 °C for the second.

First: COc1ccc(Cc2nc3c(N)nc4ccccc4c3n2CCCCNS(C)(=O)=O)cc1
Second: CCCCc1nc(C(C)(C)O)c(C(N)=O)n1Cc1ccc(-c2ccccc2C(=O)O)cc1
The melting point of the first is lower: 78.1 to 79.5 °C for the first, 130 to 138 °C for the second.

Compared with `CC(C)NCCOc1ccc(O)cc1`, `C=CCC(CC)(NC)C(=O)c1ccc(OCCO)cc1` (stereo not drawn) is higher in melting point: 78 to 80 °C for the first, 80 to 82 °C for the second.

Compared with `CC(C)(C)OC(=O)NCCNC(=O)c1cc(Cl)ccn1`, `COC(=O)c1ccc(C(=O)NCCNC(=O)c2ccc(C(=O)OC)cc2)cc1` is higher in melting point: 120 to 123 °C for the first, 297 to 299 °C for the second.

First: CC(C)Cc1ccc(C(C)C(=O)ON(C(N)=O)C(C)c2cc3ccccc3s2)cc1 (stereo not drawn)
Second: CC(=O)N[C@@H](Cc1ccc(-c2cc3ccccc3c3ccccc23)cc1)C(=O)O
The melting point of the first is lower: 123 to 128 °C for the first, 128 to 132 °C for the second.

First: Cn1nnnc1S(=O)CCCCS(=O)(=O)c1nnnn1C (stereo not drawn)
Second: COc1cc(OC)nc(NC(=O)NS(=O)(=O)N=CN(CSC)OC)n1
The melting point of the first is lower: 147 to 149 °C for the first, 165 to 167 °C for the second.

Compared with `O=C(C#Cc1ccc(CCN2CCCC2)cc1)Nc1ccc(Cl)cc1`, `CN1CCN(Cc2ccc(NC(=O)c3ccc(Cl)c(C#Cc4ccc(NC5CC5)nn4)c3)cc2C(F)(F)F)CC1` is lower in melting point: 153 to 154 °C for the first, 133 to 134 °C for the second.

First: CN(C)n1c(C(F)(F)F)n[nH]c1=O
Second: O=[N+]([O-])c1cc(C(F)F)cc2nc(C(F)(F)F)[nH]c12
The melting point of the first is higher: 138 °C for the first, 132 to 134 °C for the second.

First: O=C(O)C(=O)c1ccc(Br)s1
Second: CC(=O)c1sc2c(Br)cccc2c1C
The melting point of the first is higher: 119 to 120 °C for the first, 105 to 107 °C for the second.

First: Cc1c(Sc2ccc(Cl)cc2)nn(-c2ccccc2)c(=O)c1C#N
Second: CCN(CC)CCOc1c(-c2ccc(S(C)(=O)=O)cc2)cnn(-c2cccc(Cl)c2)c1=O
The melting point of the first is higher: 180 to 182 °C for the first, 110 to 113 °C for the second.

First: COC(=O)C(CCSC)NC(=O)c1ccc([N+](=O)[O-])cc1-c1cc(C)cc(C)c1 (stereo not drawn)
Second: CC(=O)c1cc(F)ccc1Oc1nc2ccc([N+](=O)[O-])cc2cc1Cc1ccccc1
The melting point of the first is lower: 122 to 124 °C for the first, 132 to 133 °C for the second.

First: COc1cc(C(C)C)c2c(c1)S(=O)(=O)N(COC(=O)c1c(C)c3cc(Cl)ccc3n1C)C2=O
Second: CCCc1cc(=O)oc2cc(OS(=O)(=O)c3ccc(C)cc3)c3c(c12)OC(C)(C)C=C3
The melting point of the first is higher: 183 to 184 °C for the first, 150 to 151 °C for the second.

First: Oc1ccccc1-c1nc(-c2ccccc2O)n(CC(F)(F)F)n1
Second: C=C(C)Cn1nc(C(=O)c2cccc(O)c2)c2ccccc21
The melting point of the first is higher: 154 to 156 °C for the first, 75 to 78 °C for the second.

First: CCOC(=O)COc1ccc(Br)cc1C(C)=O
Second: CCOC(=O)/C=C/c1ccc(O)c([N+](=O)[O-])c1
The melting point of the first is lower: 66 to 68 °C for the first, 114 to 115 °C for the second.

Compared with `CC(C)[C@H](NC(=O)OCc1ccccc1)C(=O)N[C@@H](Cc1ccccc1)C(=O)CSCc1ccco1`, `CCOC(=O)Cc1nc(-c2ccccc2)c(-c2ccccc2)o1` is lower in melting point: 122 to 125 °C for the first, 71 to 72 °C for the second.

Compared with `NS(=O)(=O)c1ccc(-c2c(-c3ccccc3)noc2COCC(F)(F)CO)cc1`, `CCC1c2ccccc2-c2cc(-c3cccc(O)c3)ccc2N1S(=O)(=O)c1ccc(O)cc1` (stereo not drawn) is higher in melting point: 93 to 94 °C for the first, 105 °C for the second.

First: CN1CCC(Nc2nc3ncnc(O)c3n2Cc2ccc(F)cc2)CC1
Second: CCOC(=O)c1ccc(SCCCC2CCN(c3ccc(Cl)nn3)CC2)cc1
The melting point of the first is higher: 256 °C for the first, 96.3 °C for the second.

First: CC(=O)c1c(C)[nH]c(-c2ccncc2)c1C
Second: Cc1cn(C)c2ccc(NC(=O)Nc3cccnc3)cc12
The melting point of the first is lower: 205 to 207 °C for the first, 210 °C for the second.

First: CCOC(=O)N1CCN(c2ccc3nc4[nH]c(=O)[nH]c4cc3c2)CC1
Second: Cc1cccc(-c2csc(N3CCN(C(=O)Nc4cccnc4)CC3)n2)c1
The melting point of the first is higher: greater than 300 °C for the first, 157 to 158 °C for the second.

Going from `COc1cc(-c2nc3ccc(OCCCl)cc3n2Cc2ccccc2)cc(OC)c1OC` to `COc1ccc(CNc2ncc3c(n2)N(c2ccccc2)C(=O)N(c2c(Cl)cccc2Cl)C3)cc1`, the melting point falls from 129 °C to 56 °C.

First: C=Cn1c2ccccc2c2cc(Br)ccc21
Second: O=C(COc1cc(=O)oc2ccccc12)c1ccccc1
The melting point of the first is lower: 74 to 74.5 °C for the first, 183 to 184 °C for the second.

First: Cc1nc(N2CCOCC2)sc1C
Second: C[C@@H]1CN(c2nccc(Oc3ccc(NC(=O)c4cc(F)cc(N5CCOCC5)c4)c4ccccc34)n2)C[C@H](C)O1
The melting point of the first is higher: 122 to 123 °C for the first, 118 to 120 °C for the second.

First: CC(=O)c1ccc(C#Cc2ccc(C(C)=O)s2)s1
Second: CC(=O)c1cc(S(N)(=O)=O)ccc1O
The melting point of the first is higher: 214 °C for the first, 197 to 199 °C for the second.

First: CCN(CC)C(=O)c1nc(-c2ccccc2)c2ccccc2n1
Second: CCOC(=O)Cc1c(CC)nn(-c2ccccc2)c1CC
The melting point of the first is lower: 101 °C for the first, 129 to 130 °C for the second.

First: COC(=O)c1ccc2cc(C(O)c3ccc4c(c3)C3(C)C5(C)CCC(C5)C3(C)O4)ccc2c1 (stereo not drawn)
Second: COC(=O)c1ccc(CCN(C)CCCC(C#N)(c2cccc(C(=O)OC)c2)C(C)C)cc1 (stereo not drawn)
The melting point of the first is higher: 140 to 141 °C for the first, 108 to 112 °C for the second.

First: COc1ccc(C(=O)NCCCCCCCCCCCCNC(=O)c2ccc(OC)cc2)cc1
Second: CCCCCCCCCCCCCCCCc1cc2c(s1)-n1c(C)nnc1CN=C2c1ccccc1Cl
The melting point of the first is higher: 169 to 170 °C for the first, 58 to 60 °C for the second.

First: N#CCOc1ccc(F)c(C(N)=O)c1F
Second: COc1c(F)ccc2ccc(Cl)nc12
The melting point of the first is higher: 122 to 123 °C for the first, 85 to 86 °C for the second.

First: CCN(C(=O)C(C)(C)C)c1cccc(-c2ccc3nnc(C)n3n2)c1
Second: CC(=O)Nc1cccc(-c2ccc3nnn(Cc4ccc5ncccc5c4)c3n2)c1
The melting point of the first is lower: 168 to 170 °C for the first, 198 to 201 °C for the second.

First: CN(C(=O)C(Cl)(Cl)Cl)c1nc(Cl)c([N+](=O)[O-])s1
Second: CC(=O)NC[C@H]1CN(c2ccc(Br)cn2)C(=O)O1
The melting point of the first is lower: 146 to 149 °C for the first, 166 to 168 °C for the second.

First: CC1(C)NC(SCc2ccccc2N)=NC1=S
Second: O=Cc1cccn1Cc1ccccc1[N+](=O)[O-]
The melting point of the first is lower: 103 to 104 °C for the first, 128 to 132 °C for the second.

`CCNCCC(=O)N1c2ccccc2CCc2ccc(NC(=O)OCC)cc21` and `CCOC(=O)Cc1ccc(NC(=O)C(COc2ccccc2)NS(=O)(=O)c2ccc(Br)cc2)cc1` (racemic) cannot be ordered by melting point: 150 °C for the first, 150 to 153 °C for the second.

`CCOc1ncc(C(C)=O)cc1C(=O)Nc1c(C(N)=O)nn(C2CN(CC)C2)c1CC` and `CCN1C(=O)CCCc2cc(Nc3ncc(Cl)c(Nc4ccccc4C(=O)NC)n3)c(OC)cc21` cannot be ordered by melting point: 230 to 233 °C for the first, 232 to 233 °C for the second.

Compared with `N#Cc1ncccc1OC1SCC(O)C(O)C1O` (stereo not drawn), `COC(=C1C2CC3CC1CC(O)(C3)C2)c1cccc(O)c1` is lower in melting point: 174 °C for the first, 171 to 172 °C for the second.

First: CCCCOc1ccc(-c2nc(Cl)c(C=O)[nH]2)cc1
Second: c1ccc(C(CCOc2ccc(CCC3=NCCO3)cc2)(c2ccccc2)c2ccccc2)cc1
The melting point of the first is lower: 74 °C for the first, 130 to 131 °C for the second.

First: CC1=C(C(=O)N[C@H](C)c2ccccc2)[C@H](c2ccc(F)cc2Cl)N=C(c2nccs2)N1
Second: CC(=O)NC(=Cc1ccccc1)C1=NC(=Cc2ccc(F)cc2)C(=O)O1
The melting point of the first is higher: 224 to 226 °C for the first, 172 °C for the second.

First: CC1Cc2cc(NS(C)(=O)=O)ccc2OC12CCC(N1CCc3ccccc3C1)CC2 (stereo not drawn)
Second: O=S(=O)(Cc1nnc(-c2ccc3c(c2)CCO3)o1)c1cccc(F)c1
The melting point of the first is higher: 135 °C for the first, 93 to 94 °C for the second.

Compared with `Oc1cc2c(cc1O)OCC(c1ccc3c(c1)OCO3)C2` (stereo not drawn), `C=C(CN(C)C)C(O)c1ncc2c(c1O)COC2c1ccc(Cl)cc1` (stereo not drawn) is higher in melting point: 163 to 164 °C for the first, 195 to 200 °C for the second.

First: CN1CCC2(CC1)NC(=O)N(c1ccc(C#N)c(C(F)(F)F)c1)C2=N
Second: O=C1CN(c2cccc(Oc3ccccc3)c2)NC(=O)N1
The melting point of the first is higher: 199 to 200 °C for the first, 172 to 173 °C for the second.

First: CCCCN(Cc1ccc(-c2ccccc2-c2nnnn2C(c2ccccc2)(c2ccccc2)c2ccccc2)cc1)c1nc(C)ncc1C(=O)OCC
Second: CCCCc1nc2ccc(C(C)=O)cc2c(=O)n1Cc1ccc(-c2ccccc2-c2nnnn2C(c2ccccc2)(c2ccccc2)c2ccccc2)cc1
The melting point of the first is higher: 130 to 132 °C for the first, 104 to 105 °C for the second.

First: CSc1nc(F)cc(F)n1
Second: CCOCc1nc2c(N)nc3cc(-c4cccnc4)cnc3c2n1CC(C)C
The melting point of the first is lower: 31 to 32 °C for the first, 177 to 179 °C for the second.

Compared with `CCCc1nc(SC(F)F)c(C(=O)O)n1Cc1ccc(-c2ccccc2S(=O)(=O)NC(=O)NCc2ccccc2Cl)cc1`, `CCC1(CC)c2cc(I)ccc2-c2ccc(-c3nc4ccccc4s3)cc21` is higher in melting point: 134 °C for the first, 158 to 160 °C for the second.

First: CCCc1c(OCCCCCC(=O)c2c(C)c(C)c(O)c(O)c2C)ccc(C(=O)O)c1O
Second: COC(=O)[C@@]1(C)Oc2ccccc2N(C)C1=O
The melting point of the first is higher: 169 to 170 °C for the first, 76 to 78 °C for the second.

Compared with `Nc1ccc(-c2ccc(-c3ccc(N)cc3)o2)cc1`, `O=C(Cc1c[nH]cn1)NC(P(=O)(O)O)P(=O)(O)O` is higher in melting point: 213 to 216 °C for the first, 247 to 250 °C for the second.
